Assay results published in article PMC8405091, “Microwave-assisted Phospha-Michael addition reactions in the 13α-oestrone series and in vitro antiproliferative properties” (Journal of Enzyme Inhibition and Medicinal Chemistry, 2021).

Legend:
UPCI-SCC-131 cells = experiment: MTT antiproliferative assay, UPCI-SCC-131; format: cell-based, human; conditions: for Growth inhibition; % ± SEM: 72 h
Experimental: (§1) The antiproliferative properties of the newly synthesized compounds (9–20) and their starting materials (4 and 5) were determined on a panel of human adherent cancer cell lines. MCF-7, MDA-MB-231 and T47D were isolated from breast cancers differing in biochemical background, while A2780 cells were isolated from ovarian cancer. HeLa and SiHa are cervical cancer cell lines positive for HPV-18 and HPV-16, respectively, while C33-A cervical cancer cells are negative for HPV. Moreover, two oropharyngeal cancer cell lines were also utilized: the HPV-negative UPCI-SCC-131 and HPV-16 positive UPCI-SCC-154. The cancer selectivity of compounds was tested on the non-cancerous mouse embryo fibroblast cell line NIH/3T3. All cell lines were purchased from European Collection of Cell Cultures (ECCAC, Salisbury, UK) exception for SiHa and C33-A (American Tissue Culture Collection, Manassas, VA, USA) and HN-SCC-131 and UPCI-SCC-154 (German Collection of Microorganisms and Cell Cultures GmbH, Braunschweig, Germany). Cells were cultivated in minimal essential medium supplemented with 10% fetal bovine serum, 1% non-essential amino acids and an antibiotic–antimycotic mixture. The medium of oropharyngeal cancer cells additionally contained 2.0 mM L-glutamine. All media and supplements were obtained from Lonza Group Ltd., Basel, Switzerland. Near-confluent cancer cells were seeded onto a 96-well microplate at a density of 5,000 cells/well, except for C33-A which were seeded at 10,000/well. After overnight standing, new medium containing the tested compounds at 10 and 30 µM final concentration was added. After incubation for 72 h at 37 °C in humidified air containing 5% CO2, the living cells were assayed by the addition of 20 μL of 5 mg/ml 3-(4,5-dimethylthiazol-2-yl)-2,5-diphenyltetrazolium bromide (MTT) solution. MTT was converted by intact mitochondrial reductase and precipitated as purple crystals during a 4-h contact period. The medium was next removed and the precipitated formazan crystals were dissolved in 100 μL of DMSO during a 60-min period of shaking at 37 ^оC.
(§2) All in vitro experiments were carried out twice with five parallels. Stock solutions of the tested substances (10 mM) were prepared in DMSO. […] Cisplatin (Ebewe Pharma GmbH, Unterach, Austria) was used as positive control.

UPCI-SCC-154 cells = experiment: MTT antiproliferative assay, UPCI-SCC-154; format: cell-based, human
Experimental: as §1, §2

HeLa cells = experiment: MTT antiproliferative assay, HeLa; format: cell-based, human; conditions: 72 h
Experimental: as §1, §2

SiHa cells = experiment: MTT antiproliferative assay, SiHa; format: cell-based, human; conditions: 72 h
Experimental: as §1, §2

C33-A cells = experiment: MTT antiproliferative assay, C33-A; format: cell-based, human; conditions: 72 h
Experimental: as §1, §2

A2780 cells = experiment: MTT antiproliferative assay, A2780; format: cell-based, human
Experimental: as §1, §2

MCF-7 cells = experiment: MTT antiproliferative assay, MCF-7; format: cell-based, human
Experimental: as §1, §2

MDA-MB-231 cells = experiment: MTT antiproliferative assay, MDA-MB-231; format: cell-based, human; conditions: for Growth inhibition; % ± SEM: 72 h
Experimental: as §1, §2

T47D cells = experiment: MTT antiproliferative assay, T47D; format: cell-based, human; conditions: 72 h
Experimental: as §1, §2

[1] = tested on: non-cancerous mouse embryo fibroblast (NIH/3T3) cells; experiment: MTT assay on non-cancerous fibroblasts (tumour selectivity); format: cell-based; conditions: for Growth inhibition; % ± SEM: 72 h
Experimental: as §1, §2

[2] = read-out: calculated IC50 value
[3] = UPCI-SCC-154, 30 μM, 72 h, 30 µM
[4] = Homo sapiens, read-out: Growth inhibition, % ± SEM, 10 μM
[5] = Homo sapiens, MDA-MB-231, 72 h, read-out: Growth inhibition, % ± SEM

SMILES	Growth inhibition; % ± SEM (UPCI-SCC-154 cells; UPCI-SCC-154, 10 μM, 72 h)	Growth inhibition; % ± SEM (HeLa cells; 10 μM)	Growth inhibition; % ± SEM (HeLa cells; 30 μM)	Growth inhibition; % ± SEM (SiHa cells; 10 μM)	Growth inhibition; % ± SEM (SiHa cells; 30 μM)	Growth inhibition; % ± SEM (C33-A cells; C33-A, 10 μM)	Growth inhibition; % ± SEM (C33-A cells; C33-A, 30 μM) [%]	Growth inhibition; % ± SEM (A2780 cells; A2780, 10 μM, 72 h)	Growth inhibition; % ± SEM (A2780 cells; A2780, 30 μM, 72 h)	Growth inhibition; % ± SEM (MCF-7 cells; MCF-7, 10 μM, 72 h)	Growth inhibition; % ± SEM (MCF-7 cells; MCF-7, 30 μM, 72 h)	Growth inhibition; % ± SEM (MDA-MB-231 cells; MDA-MB-231, 10 μM)	Growth inhibition; % ± SEM (MDA-MB-231 cells; MDA-MB-231, 30 μM)	Growth inhibition; % ± SEM (T47D cells; 10 μM)	Growth inhibition; % ± SEM (T47D cells; 30 μM)	Growth inhibition; % ± SEM (UPCI-SCC-131 cells; UPCI-SCC-131, 10 μM, 10 µM)	Growth inhibition; % ± SEM (UPCI-SCC-131 cells; UPCI-SCC-131, 30 μM, 30 µM) [%]	Growth inhibition; % ± SEM (UPCI-SCC-154 cells; [3])	further results
N.N.[Cl][Pt][Cl] [CIS, Cisplatin, reference compound]	87.40 ± 1.72%	42.61 ± 2.33%	99.93 ± 0.26%	88.64 ± 0.50%	90.18 ± 1.78%	85.98 ± 1.05%	98.66 ± 0.21	83.6 ± 1.2%	95.0 ± 0.3%	66.91 ± 1.81%	96.80 ± 0.35%	– (Inhibition values <20% are not presented.)	71.47 ± 1.20%	40.41 ± 1.25%	56.84 ± 1.16%				Growth inhibition; % ± SEM (UPCI-SCC-131 cells; UPCI-SCC-131, 10 μM): 95.63 ± 1.49%; Growth inhibition; % ± SEM (UPCI-SCC-131 cells; UPCI-SCC-131, 30 μM): 95.09 ± 1.57%; IC50 (UPCI-SCC-131 cells; UPCI-SCC-131, 72 h, read-out: calculated IC50 value): 1.22 µM; Growth inhibition; % ± SEM (UPCI-SCC-154 cells; UPCI-SCC-154, 30 μM, 72 h): 92.72 ± 1.67%; IC50 (UPCI-SCC-154 cells; UPCI-SCC-154, 72 h, read-out: calculated IC50 value): 1.29 µM; IC50 (HeLa cells; [2]): 12.4 µM; IC50 (SiHa cells; [2]): 7.84 µM; IC50 (C33-A cells; C33-A, read-out: calculated IC50 value): 4.13 µM; IC50 (A2780 cells; A2780, 72 h, read-out: calculated IC50 value): 1.3 µM; IC50 (MCF-7 cells; MCF-7, 72 h, read-out: calculated IC50 value): 5.78 µM; IC50 (MDA-MB-231 cells; MDA-MB-231, 72 h, read-out: calculated IC50 value): 19.1 µM; IC50 (T47D cells; [2]): 19.2 µM; Growth inhibition; % ± SEM ([1]; NIH/3T3, 10 μM): 76.74 ± 1.26%; Growth inhibition; % ± SEM ([1]; NIH/3T3, 30 μM): 96.90 ± 0.25%; IC50 ([1]; NIH/3T3, 72 h, read-out: calculated IC50 value): 4.73 µM
COc1ccc2c(c1)CCC1C2CCC2(C)C(=O)C(CP(=O)(c3ccc4ccccc4c3)c3ccc4ccccc4c3)CC12 (stereo not drawn) [Compound 18, [(3-methoxy-17-oxo-13α-oestra-1,3,5(10)-trien-16β-yl)methyl]di(naphtalen-2-yl)phosphine oxide]	– (Inhibition values <20% are not presented.)	– (Inhibition values <20% are not presented.)	– (Inhibition values <20% are not presented.)	– (Inhibition values <20% are not presented.)	– (Inhibition values <20% are not presented.)	– (Inhibition values <20% are not presented.)	20.25 ± 1.01	– (Inhibition values <20% are not presented.)	– (Inhibition values <20% are not presented.)	– (Inhibition values <20% are not presented.)	– (Inhibition values <20% are not presented.)	– (Inhibition values <20% are not presented.)	– (Inhibition values <20% are not presented.)	– (Inhibition values <20% are not presented.)	– (Inhibition values <20% are not presented.)	46.39 ± 1.19%	64.55 ± 1.29	– (Inhibition values <20% are not presented.)	
CC12CCC3c4ccc(OCc5ccccc5)cc4CCC3C1CC(CP(=O)(c1ccc3ccccc3c1)c1ccc3ccccc3c1)C2=O (stereo not drawn) [Compound 19, [(3-benzyloxy-17-oxo-13α-oestra-1,3,5(10)-trien-16α-yl)methyl]di(naphtalen-2-yl)phosphine oxide]			48.89 ± 0.90%		40.30 ± 2.00%											– (Inhibition values <20% are not presented.)	40.98 ± 2.94	48.81 ± 2.15%	inhibition at 10 µM (UPCI-SCC-154 cells; Homo sapiens, 72 h, read-out: Growth inhibition, % ± SEM, UPCI-SCC-154, 10 μM, 72 h): 34.3 ± 2.8%; inhibition at 10 µM (HeLa cells; [4]): 31 ± 1.11%; inhibition at 10 µM (SiHa cells; [4]): 23.2 ± 1.36%; inhibition at 10 µM (C33-A cells; Homo sapiens, C-33-A, read-out: Growth inhibition, % ± SEM, C33-A, 10 μM): 28.1 ± 1.39%; inhibition at 30 µM (C33-A cells; Homo sapiens, C-33-A, read-out: Growth inhibition, % ± SEM, C33-A, 30 μM): 34.7 ± 1.7%; inhibition at 10 µM (A2780 cells; Homo sapiens, A2780, 72 h, read-out: Growth inhibition, % ± SEM, A2780, 10 μM, 72 h): < 20%; inhibition at 30 µM (A2780 cells; Homo sapiens, A2780, 72 h, read-out: Growth inhibition, % ± SEM, A2780, 30 μM, 72 h): 28.5 ± 2.35%; inhibition at 10 µM (MCF-7 cells; Homo sapiens, MCF7, 72 h, read-out: Growth inhibition, % ± SEM, MCF-7, 10 μM, 72 h): 31.8 ± 2.47%; inhibition at 30 µM (MCF-7 cells; Homo sapiens, MCF7, 72 h, read-out: Growth inhibition, % ± SEM, MCF-7, 30 μM, 72 h): 40.6 ± 1.71%; inhibition at 10 µM (MDA-MB-231 cells; [5]): < 20%; inhibition at 30 µM (MDA-MB-231 cells; [5]): < 20%; inhibition at 10 µM (T47D cells; [4]): 59.4 ± 2.44%; inhibition at 30 µM (T47D cells; Homo sapiens, read-out: Growth inhibition, % ± SEM, 30 μM): 62.4 ± 1.7%
CC12CCC3c4ccc(OCc5ccccc5)cc4CCC3C1CC(CP(=O)(c1ccc3ccccc3c1)c1ccc3ccccc3c1)C2=O (stereo not drawn) [Compound 20, [(3-benzyloxy-17-oxo-13α-oestra-1,3,5(10)-trien-16β-yl)methyl]di(naphtalen-2-yl)phosphine oxide]		– (Inhibition values <20% are not presented.)	– (Inhibition values <20% are not presented.)	– (Inhibition values <20% are not presented.)	– (Inhibition values <20% are not presented.)	27.94 ± 0.89%	26.53 ± 1.06	– (Inhibition values <20% are not presented.)				– (Inhibition values <20% are not presented.)	– (Inhibition values <20% are not presented.)	66.09 ± 0.76%	68.56 ± 1.81%	48.25 ± 1.46%	61.12 ± 1.32	28.72 ± 1.11%	Growth inhibition; % ± SEM (UPCI-SCC-154 cells; UPCI-SCC-154, 10 μM, 72 h, 10 µM): 30.97 ± 2.54%; Growth inhibition; % ± SEM (A2780 cells; A2780, 30 μM, 72 h, 30 µM): – (Inhibition values <20% are not presented.); Growth inhibition; % ± SEM (MCF-7 cells; MCF-7, 10 μM, 72 h, 10 µM): 28.24 ± 1.66%; Growth inhibition; % ± SEM (MCF-7 cells; MCF-7, 30 μM, 72 h, 30 µM): 22.21 ± 2.78%
